In US9072698B2, “Method for screening anti-cancer compounds inhibiting function of TM4SF5 and anti-cancer composition containing chalcone compounds” (Seoul National University Industry Foundation, priority 2006, dated 2015):
Converted amounts (≈) assume the structure as drawn.

Assays:
Type in all cases: cell-based
[1] = tested on: HCT15 (colon adenocarcinoma); test: In vitro cytotoxicity, sulforhodamine B (SRB) method, HCT15; settings: Homo sapiens; HCT-15, SRB method; read-out: cytotoxicity (ED50) HCT-15
Protocol: (§1) The chalcone derivatives of the present invention were evaluated for in vitro cytotoxicity against human carcinoma cell lines using a sulforhodamine B (SRB) method, which was developed in 1989 by the National Cancer Institute (NCI), USA.
(§2) HCT15 (colon adenocarcinoma; ATCC CCL-225), PC-3 (prostate adenocarcinoma; ATCC CRL-1435), and A-549 (lung carcinoma; ATCC CCL-185) cell lines were used. All of these carcinoma cells were sub-cultured at the Korean Research Institute of Bioscience and Biotechnology (KRIBB), Korea.
(§3) The human carcinoma cell lines were cultured in 10% FCS-containing RPMI 1640 medium (Gibco Cat. No. 31800) in an incubator at 37° C. under 5% CO2, and sub-cultured twice per week.
(§4) Cells were detached from the attached surface using 0.25% Trypsin (Sigma) and 3 mM CDTA (1,2-cyclohexane diamine tetraacetic acid, Sigma) in phosphate buffered saline (PBS, Sigma).
(§5) Compounds to be tested (the chalcone derivatives set forth in Table 1) were dissolved in a small amount of dimethylsulfoxide (DMSO, Sigma), and diluted in culture medium to a desired concentration. The final concentration of DMSO was less than 0.5%. The diluted compounds (final concentration: 30, 10, 3, 1 and 0.3 μg/ml) were sterilized through a 0.22-μm microfilter (Millipore). The cytotoxicity of the compounds to human carcinoma cell lines was assessed using a typical SRB method.

[2] = tested on: A-549 (lung carcinoma); test: In vitro cytotoxicity, sulforhodamine B (SRB) method, A-549; settings: Homo sapiens, A549; A-549, SRB method; read-out: cytotoxicity (ED50) A-549
Protocol: as §1, §2, §3, §4, §5

[3] = tested on: PC-3 (prostate adenocarcinoma); test: In vitro cytotoxicity, sulforhodamine B (SRB) method, PC-3; settings: Homo sapiens; PC-3, SRB method; read-out: cytotoxicity (ED50) PC-3
Protocol: as §1, §2, §3, §4, §5

Structure (SMILES) | IC50 [1] [mg/L] | IC50 [2] [mg/L] | IC50 [3] [mg/L]
O=C(/C=C/c1ccc(O)c(O)c1)c1ccccc1NS(=O)(=O)c1ccc(O)cc1 [Compound 56, 2′-(p-hydroxybenzenesulfonylamino)-3,4-dihydroxychalcone] | 5 (≈ 12.2 µM) | 3 (≈ 7.29 µM) | 6 (≈ 14.6 µM)
O=C(/C=C/c1cccc(O)c1O)c1ccccc1NS(=O)(=O)c1ccc(O)cc1 [Compound 57, 2′-(p-hydroxybenzenesulfonylamino)-2,3-dihydroxychalcone] | 9 (≈ 21.9 µM) | 7 (≈ 17 µM) | 10 (≈ 24.3 µM)
O=C(/C=C/c1ccc(O)cc1O)c1ccccc1NS(=O)(=O)c1ccc(O)cc1 [Compound 58, 2′-(p-hydroxybenzenesulfonylamino)-2,4-dihydroxychalcone] | 11 (≈ 26.7 µM) | 12 (≈ 29.2 µM) | 10 (≈ 24.3 µM)
O=C(/C=C/c1cc(O)ccc1O)c1ccccc1NS(=O)(=O)c1ccc(O)cc1 [Compound 59, 2′-(p-hydroxybenzenesulfonylamino)-2,5-dihydroxychalcone] | 9 (≈ 21.9 µM) | 13 (≈ 31.6 µM) | 20 (≈ 48.6 µM)
O=C(/C=C/c1ccc(O)c(O)c1)c1ccc(NS(=O)(=O)c2cccc(O)c2)cc1 [Compound 60, 4′-(m-hydroxybenzenesulfonylamino)-3,4-dihydroxychalcone] | 4 (≈ 9.72 µM) | 7 (≈ 17 µM) | 8 (≈ 19.4 µM)
O=C(/C=C/c1cccc(O)c1O)c1ccc(NS(=O)(=O)c2cccc(O)c2)cc1 [Compound 61, 4′-(m-hydroxybenzenesulfonylamino)-2,3-dihydroxychalcone] | 12 (≈ 29.2 µM) | 10 (≈ 24.3 µM) | 10 (≈ 24.3 µM)
O=C(/C=C/c1ccc(O)cc1O)c1ccc(NS(=O)(=O)c2cccc(O)c2)cc1 [Compound 62, 4′-(m-hydroxybenzenesulfonylamino)-2,4-dihydroxychalcone] | 7 (≈ 17 µM) | 12 (≈ 29.2 µM) | 8 (≈ 19.4 µM)
O=C(/C=C/c1cc(O)ccc1O)c1ccc(NS(=O)(=O)c2cccc(O)c2)cc1 [Compound 63, 4′-(m-hydroxybenzenesulfonylamino)-2,5-dihydroxychalcone] | 8 (≈ 19.4 µM) | 10 (≈ 24.3 µM) | 14 (≈ 34 µM)
O=C(/C=C/c1ccc(O)c(O)c1)c1cccc(NS(=O)(=O)c2cccc(O)c2)c1 [Compound 64, 3′-(m-hydroxybenzenesulfonylamino)-3,4-dihydroxychalcone] | 4 (≈ 9.72 µM) | 3 (≈ 7.29 µM) | 7 (≈ 17 µM)
O=C(/C=C/c1cccc(O)c1O)c1cccc(NS(=O)(=O)c2cccc(O)c2)c1 [Compound 65, 3′-(m-hydroxybenzenesulfonylamino)-2,3-dihydroxychalcone] | 9 (≈ 21.9 µM) | 4 (≈ 9.72 µM) | 13 (≈ 31.6 µM)
O=C(/C=C/c1ccc(O)cc1O)c1cccc(NS(=O)(=O)c2cccc(O)c2)c1 [Compound 66, 3′-(m-hydroxybenzenesulfonylamino)-2,4-dihydroxychalcone] | 11 (≈ 26.7 µM) | 11 (≈ 26.7 µM) | 13 (≈ 31.6 µM)
O=C(/C=C/c1cc(O)ccc1O)c1cccc(NS(=O)(=O)c2cccc(O)c2)c1 [Compound 67, 3′-(m-hydroxybenzenesulfonylamino)-2,5-dihydroxychalcone] | 7 (≈ 17 µM) | 14 (≈ 34 µM) | 15 (≈ 36.5 µM)
O=C(/C=C/c1ccc(O)c(O)c1)c1ccccc1NS(=O)(=O)c1cccc(O)c1 [Compound 68, 2′-(m-hydroxybenzenesulfonylamino)-3,4-dihydroxychalcone] | 6 (≈ 14.6 µM) | 8 (≈ 19.4 µM) | 10 (≈ 24.3 µM)
O=C(/C=C/c1cccc(O)c1O)c1ccccc1NS(=O)(=O)c1cccc(O)c1 [Compound 69, 2′-(m-hydroxybenzenesulfonylamino)-2,3-dihydroxychalcone] | 7 (≈ 17 µM) | 8 (≈ 19.4 µM) | 16 (≈ 38.9 µM)
O=C(/C=C/c1ccc(O)cc1O)c1ccccc1NS(=O)(=O)c1cccc(O)c1 [Compound 70, 2′-(m-hydroxybenzenesulfonylamino)-2,4-dihydroxychalcone] | 8 (≈ 19.4 µM) | 9 (≈ 21.9 µM) | 11 (≈ 26.7 µM)
O=C(/C=C/c1cc(O)ccc1O)c1ccccc1NS(=O)(=O)c1cccc(O)c1 [Compound 71, 2′-(m-hydroxybenzenesulfonylamino)-2,5-dihydroxychalcone] | 12 (≈ 29.2 µM) | 7 (≈ 17 µM) | 24 (≈ 58.3 µM)
O=C(/C=C/c1ccc(O)c(O)c1)c1ccc(NS(=O)(=O)c2ccc(F)cc2)cc1 [Compound 72, 4′-(p-fluorobenzensulfonylamino)-3,4-dihydroxychalcone] | 10 (≈ 24.2 µM) | 11 (≈ 26.6 µM) | 8 (≈ 19.4 µM)
O=C(/C=C/c1ccc(O)c(O)c1)c1ccc(NS(=O)(=O)c2ccccc2F)cc1 [Compound 74, 4′-(o-fluorobenzensulfonylamino)-3,4-dihydroxychalcone] | 8 (≈ 19.4 µM) | 11 (≈ 26.6 µM) | 14 (≈ 33.9 µM)
